The assay deals with T1, CpGNA1 (Cryptosporidium parvum, UniProt Q5CPU3).
T1 construct: gene SSAT; E. coli BL21 Star; GST cut off with PreScission protease, GPLGS left at N terminus; dimer (sugar site formed by both monomers)
The experiment in a line: X-ray crystal structure, […] Å. Format: binding.

Results on two compounds are retold here after PMC7587441, “Plasmodium falciparum Apicomplexan-Specific Glucosamine-6-Phosphate N-Acetyltransferase Is Key for Amino Sugar Metabolism and Asexual Blood Stage Development” (mBio, 2020).

T1 sequence (Q5CPU3 whole entry): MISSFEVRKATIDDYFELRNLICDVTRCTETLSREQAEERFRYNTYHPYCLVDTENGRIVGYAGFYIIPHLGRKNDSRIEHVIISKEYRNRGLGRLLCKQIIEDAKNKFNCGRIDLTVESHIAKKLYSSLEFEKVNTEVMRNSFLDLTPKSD

Turning to `O=P(O)(O)OC[C@H]1OC(O)[C@H](O)[C@@H](O)[C@@H]1O` (some centres unmarked) [Glc6P], the “X-ray crystal structure, 1.95 Å” value (crystal soaked with 50 mM Glc6P and 50 mM acetyl-CoA, pseudosubstrate in GlcN6P site) is “dimeric structure of CpGNA1 in complex with acetyl-CoA and glucose-6-phosphate (Glc6P)”.
For the compound `CC(=O)SCCNC(=O)CCNC(=O)[C@H](O)C(C)(C)COP(=O)(O)OP(=O)(O)OC[C@H]1O[C@@H](n2cnc3c(N)ncnc32)[C@H](O)[C@@H]1OP(=O)(O)O` [acetyl-CoA], under “cocrystallized with 10 mM acetyl-CoA, soaked with 50 mM acetyl-CoA and 50 mM Glc6P, acetyl-CoA site”, the “X-ray crystal structure, 1.95 Å” value was “dimeric structure of CpGNA1 in complex with acetyl-CoA and glucose-6-phosphate (Glc6P)”.
